In the experiment the target is T1, cloned human glucagon receptor (Homo sapiens, UniProt P47871).
T1 construct: expressed in transfected cells; plasma membrane preparation
As to the kind of experiment: Glucagon Binding Assay (II). Particulars: read-out: displacement of the glucagon tracer when screened at 1 μM concentration in the glucagon binding assay II.

Setting [1] is: screened at 1 μM, library compounds.

Like-named read-outs stand apart in the source and are kept apart here.

T1 sequence (P47871 26-477): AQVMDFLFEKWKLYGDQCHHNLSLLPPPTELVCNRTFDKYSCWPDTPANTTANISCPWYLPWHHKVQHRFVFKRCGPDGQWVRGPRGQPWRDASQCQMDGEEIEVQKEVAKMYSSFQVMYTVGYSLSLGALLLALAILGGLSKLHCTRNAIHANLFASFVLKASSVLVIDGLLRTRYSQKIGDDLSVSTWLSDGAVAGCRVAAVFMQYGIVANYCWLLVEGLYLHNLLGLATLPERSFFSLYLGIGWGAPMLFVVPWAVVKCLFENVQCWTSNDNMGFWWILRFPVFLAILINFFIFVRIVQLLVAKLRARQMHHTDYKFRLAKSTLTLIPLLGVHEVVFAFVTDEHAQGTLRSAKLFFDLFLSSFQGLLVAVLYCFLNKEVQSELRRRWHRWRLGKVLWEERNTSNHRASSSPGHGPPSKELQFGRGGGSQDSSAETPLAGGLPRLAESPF

As for `Cc1cc(C)cc(NC(=O)N(Cc2ccc(C(=O)NCCC(=O)O)cc2)c2ccc(C3CCCCC3)cc2)c1` [Example 186, 3-{4-[1-(4-Cyclohexylphenyl)-3-(3,5-dimethylphenyl)ureidomethyl]benzoylamino}propionic acid], the inhibition at 1 µM under setting [1] was greater than 50%.

As for `O=C(O)CCNC(=O)c1ccc(CN(Cc2ccc(Br)cc2)C(=O)Nc2ccc(Cl)c(C(F)(F)F)c2)cc1` [Example 190, 3-{4-[1-(4-Bromobenzyl)-3-(4-chloro-3-trifluoromethylphenyl)ureidomethyl]benzoylamino}propionic acid], the inhibition at 1 µM under setting [1] was greater than 50%.

`O=C(O)CCNC(=O)c1ccc(CN(C(=O)Nc2ccc(Cl)c(C(F)(F)F)c2)c2ccc3c(c2)OC(F)(F)C(F)(F)O3)cc1` [Example 191, 3-{4-[3-(4-Chloro-3-trifluoromethyl-phenyl)-1-(2,2,3,3-tetrafluoro-2,3-dihydrobenzo[1,4]-dioxin-6-yl)ureidomethyl]benzoylamino}propionic acid]: the inhibition at 1 µM under setting [1] is greater than 50%.

On to `O=C(O)CCNC(=O)c1ccc(CN(C(=O)Nc2ccc(Cl)c(C(F)(F)F)c2)C2CCC(NC(=O)C(F)(F)F)CC2)cc1` (centres unmarked) [Example 192, 3-(4-{3-(4-Chloro-3-trifluoromethylphenyl)-1-[4-(2,2,2-trifluoroacetylamino)cyclohexyl]ureidomethyl}benzoylamino)propionic acid], for which the inhibition at 1 µM under setting [1] was greater than 50%.

Take `CC1CCCCN1CCCN(Cc1ccc(C(=O)NCCC(=O)O)cc1)C(=O)Nc1ccc(Cl)c(C(F)(F)F)c1` (centres unmarked) [Example 193, 3-(4-{3-(4-Chloro-3-trifluoromethylphenyl)-1-[3-(2-methylpiperidin-1-yl)propyl]ureidomethyl}benzoylamino)propionic acid]: the inhibition at 1 µM under setting [1] was greater than 50%.

Consider `CC(=O)N1CCc2cc(N(Cc3ccc(C(=O)NCCC(=O)O)cc3)C(=O)Nc3ccc(Cl)c(C(F)(F)F)c3)ccc21` [Example 194, 3-{4-[1-(1-Acetyl-2,3-dihydro-1H-indol-5-yl)-3-(4-chloro-3-trifluoromethylphenyl)ureidomethyl]benzoylamino}propionic acid], for which the inhibition at 1 µM under setting [1] was greater than 50%.

As for `O=C(O)CCNC(=O)c1ccc(CN(C(=O)Nc2ccc(Cl)c(C(F)(F)F)c2)c2nc3cc(Cl)c(Cl)cc3[nH]2)cc1` [Example 195, 3-{4-[3-(4-Chloro-3-trifluoromethylphenyl)-1-(5,6-dichloro-1H-benzimidazol-2-yl)ureidomethyl]benzoylamino}propionic acid], the inhibition at 1 µM under setting [1] was greater than 50%.

In the case of `CC(C)(C)C1CCC(N(Cc2ccc(C(=O)NCCC(=O)O)cc2)C(=O)Nc2ccc(C(=O)O)cc2)CC1` (centres unmarked) [Example 196, 4-{3-(4-tert-Butylcyclohexyl)-3-[4-(2-carboxyethylcarbamoyl)benzyl]ureido}benzoic acid], the inhibition at 1 µM under setting [1] is greater than 50%.

On to `Cc1cc(C)cc(NC(=O)N(Cc2ccc(C(=O)NCCC(=O)O)cc2)C2CCC(C(C)(C)C)CC2)c1` (centres unmarked) [Example 197, 3-{4-[1-(4-tert-Butylcyclohexyl)-3-(3,5-dimethylphenyl)ureidomethyl]benzoylamino}propionic acid], for which the inhibition at 1 µM under setting [1] is greater than 50%.

With `CC(C)(C)C1CCC(N(Cc2ccc(OCCCC(=O)O)cc2)C(=O)Nc2cccc(SC(F)(F)F)c2)CC1` (centres unmarked) [Example 198, 4-{4-[1-(4-tert-Butylcyclohexyl)-3-(3-trifluoromethylsulfanylphenyl)ureidomethyl]phenoxy}butyric acid], under setting [1], the inhibition at 1 µM is greater than 50%.

In the case of `CC(C)(C)C1CCC(N(Cc2ccc(C(=O)NCCC(=O)O)cc2)C(=O)Nc2cccc(SC(F)(F)F)c2)CC1` (centres unmarked) [Example 199, 3-{4-[1-(4-tert-Butylcyclohexyl)-3-(3-trifluoromethylsulfanylphenyl)ureidomethyl]benzoylamino}propionic acid], under setting [1], the inhibition at 1 µM is greater than 50%.

For `CCOc1ccc(NC(=O)N(Cc2ccc(C(=O)NCCC(=O)O)cc2)C2CCC(C(C)(C)C)CC2)cc1` (centres unmarked) [Example 200, 3-{4-[1-(4-tert-Butylcyclohexyl)-3-(4-ethoxyphenyl)ureidomethyl]benzoylamino}propionic acid], under setting [1], the inhibition at 1 µM is greater than 50%.

Consider `O=C(O)CCNC(=O)c1ccc(CN(CCc2cccc(Cl)c2)C(=O)Nc2cccc(SC(F)(F)F)c2)cc1` [Example 201, 3-{4-[1-[2-(3-Chlorophenyl)ethyl]-3-(3-trifluoromethylsulfanylphenyl)ureidomethyl]benzoylamino}propionic acid], for which, under setting [1], the inhibition at 1 µM is greater than 50%.

With `O=C(O)CCNC(=O)c1ccc(CN(C(=O)Nc2cccc(SC(F)(F)F)c2)c2ccc(C3CCCCC3)cc2)cc1` [Example 202, 3-{4-[1-(4-Cyclohexylphenyl)-3-(3-trifluoromethylsulfanylphenyl)ureidomethyl]benzoylamino}propionic acid], the inhibition at 1 µM under setting [1] was greater than 50%.

`O=C(O)CCNC(=O)c1ccc(CN(C(=O)NCOc2ccc3ccccc3c2)c2ccc(C3CCCCC3)cc2)cc1` [Example 203, 3-{4-[1-(4-Cyclohexylphenyl)-3-(naphthalen-2-yloxymethyl)ureidomethyl]benzoylamino}propionic acid]: the inhibition at 1 µM under setting [1] is greater than 50%.

In the case of `CC1(C)C2CCC(CN(Cc3ccc(C(=O)NCCC(=O)O)cc3)C(=O)Nc3cccc(SC(F)(F)F)c3)C1C2` (centres unmarked) [Example 204, 3-{4-[1-(6,6-Dimethylbicyclo[3.1.1]hept-2-ylmethyl)-3-(3-trifluoromethylsulfanylphenyl)ureidomethyl]benzoylamino}propionic acid], the inhibition at 1 µM under setting [1] was greater than 50%.

On to `O=C(O)CCNC(=O)c1ccc(CN(C(=O)NCOc2ccc3ccccc3c2)c2ccc3c(c2)OC(F)(F)C(F)(F)O3)cc1` [Example 205, 3-{4-[3-(Naphthalen-2-yloxymethyl)-1-(2,2,3,3-tetrafluoro-2,3-dihydro-benzo[1,4]dioxin-6-yl)ureidomethyl]benzoylamino}propionic acid], for which the inhibition at 1 µM under setting [1] is greater than 50%.

For `CC(=O)N1CCc2cc(N(Cc3ccc(C(=O)NCCC(=O)O)cc3)C(=O)NCOc3ccc4ccccc4c3)ccc21` [Example 206, 3-{4-[1-(1-Acetyl-2,3-dihydro-1H-indol-5-yl)-3-(naphthalen-2-yloxymethyl)ureidomethyl]benzoylamino}propionic acid], the inhibition at 1 µM under setting [1] is greater than 50%.

Take `CN(CCN(Cc1ccc(C(=O)NCCC(=O)O)cc1)C(=O)Nc1cccc(SC(F)(F)F)c1)C(=O)OC(C)(C)C` [Example 207, 3-{4-[1-[2-(N-tert-Butoxycarbonyl-N-methylamino)ethyl]-3-(3-trifluoromethylsulfanylphenyl)ureidomethyl]benzoylamino}propionic acid]: the inhibition at 1 µM under setting [1] was greater than 50%.

On to `CC(C)(C)C1CCC(N(Cc2ccc(C(=O)NCCC(=O)O)cc2)C(=O)NC(=O)Oc2ccccc2)CC1` (centres unmarked) [Example 208, 3-{4-[1-(4-tert-Butylcyclohexyl)-3-(phenoxycarbonyl)ureidomethyl]benzoylamino}propionic acid], for which the inhibition at 1 µM was greater than 50%.

On to `CN1C(=O)c2ccc(NC(=O)N(Cc3ccc(C(=O)NCCC(=O)O)cc3)C3CCC(C(C)(C)C)CC3)cc2C1=O` (centres unmarked) [Example 209, 3-{4-[1-(4-tert-Butylcyclohexyl)-3-(2-methyl-1,3-dioxo-2,3-dihydro-1H-isoindol-5-yl)ureidomethyl]benzoylamino}propionic acid], for which, under setting [1], the inhibition at 1 µM is greater than 50%.

As to `O=C(O)CCNC(=O)c1ccc(CN(C(=O)Nc2cccc(SC(F)(F)F)c2)c2ccc(C3CCCCC3)cc2)o1` [Example 210, 3-({5-[1-(4-cyclohexylphenyl)-3-(3-trifluoromethylsulfanylphenyl)ureidomethyl]furan-2-carbonyl}amino)propionic acid], the inhibition at 1 µM under setting [1] is greater than 50%.

Consider `CC(C)(C)C1CCC(N(Cc2ccc(C(=O)NCCC(=O)O)o2)C(=O)Nc2cccc(SC(F)(F)F)c2)CC1` (centres unmarked) [Example 211, 3-({5-[1-(4-tert-Butylcyclohexyl)-3-(3-trifluoromethylsulfanylphenyl)ureidomethyl]furan-2-carbonyl}amino)propionic acid], for which the inhibition at 1 µM under setting [1] is greater than 50%.

In the case of `O=C(O)CCNC(=O)c1ccc(CN(C(=O)Nc2ccc(Cl)c(C(F)(F)F)c2)c2ccc(C3CCCCC3)cc2)o1` [Example 212, 3-({5-[3-(4-Chloro-3-trifluoromethylphenyl)-1-(4-cyclohexylphenyl)ureidomethyl]furan-2-carbonyl}amino)propionic acid], the inhibition at 1 µM under setting [1] was greater than 50%.

For the compound `CC(C)(C)C1CCC(N(Cc2ccc(C(=O)NCCC(=O)O)o2)C(=O)Nc2ccc(Cl)c(C(F)(F)F)c2)CC1` (centres unmarked) [Example 213, 3-({5-[1-(4-tert-Butylcyclohexyl)-3-(4-chloro-3-trifluoromethylphenyl)ureidomethyl]furan-2-carbonyl}amino)propionic acid], the inhibition at 1 µM under setting [1] was greater than 50%.

As to `CC1(C)C2CCC(CN(Cc3ccc(OCCCC(=O)O)cc3)C(=O)Nc3ccc(OC(F)(F)F)cc3)C1C2` (centres unmarked) [Example 214, 4-{4-[1-(6,6-Dimethylbicyclo[3.1.1]hept-2-ylmethyl)-3-(4-trifluoromethoxyphenyl)ureidomethyl]phenoxy}butyric acid], the inhibition at 1 µM under setting [1] was greater than 50%.

As to `CC1(C)C2CCC(CN(Cc3ccc(OCCCC(=O)O)cc3)C(=O)Nc3ccc(Cl)c(C(F)(F)F)c3)C1C2` (centres unmarked) [Example 215, 4-{4-[3-(4-Chloro-3-trifluoromethylphenyl)-1-(6,6-dimethylbicyclo[3.1.1]hept-2-ylmethyl)ureidomethyl]phenoxy}butyric acid], under setting [1], the inhibition at 1 µM is greater than 50%.

Take `O=C(O)CCCOc1ccc(CN(C(=O)Nc2ccc(OC(F)(F)F)cc2)c2ccc(C3CCCCC3)cc2)cc1` [Example 216, 4-{4-[1-(4-Cyclohexylphenyl)-3-(4-trifluoromethoxyphenyl)ureidomethyl]phenoxy}butyric acid]: the inhibition at 1 µM under setting [1] was greater than 50%.

Regarding `O=C(O)CCCOc1ccc(CN(C(=O)Nc2ccc(Cl)c(C(F)(F)F)c2)c2ccc(C3CCCCC3)cc2)cc1` [Example 217, 4-{4-[3-(4-Chloro-3-trifluoromethylphenyl)-1-(4-cyclohexylphenyl)ureidomethyl]phenoxy}butyric acid], under setting [1], the inhibition at 1 µM was greater than 50%.

The values above are taken from patent publication US6875760B2 (Novo Nordisk A/S, priority 1999, dated 2005).
